In patent US11078202B2, “β-lactamase inhibitor and use thereof” (priority 2018, dated 2021):
Structures can show the parent of a compound that is named as a salt.

Tests used:
Type in all cases: cell-based
[1] = system: Acinetobacter baumannii XNWB 0007; assay: MIC assay of test compounds combined with ceftazidime (8 μg/mL); settings: ceftazidime 8 μg/mL fixed
Method: (§1) The bacterial strains used for the minimum inhibitory concentration (MIC) test were frozen in a −80° C. ULT freezer and thawed 2 days before use. A small amount of frozen bacterial strains were scraped using a sterile inoculating loop, streaked onto a TSA solid culture dish for inoculation, and then cultured for 20-24 h at 35±2° C. in a normal atmospheric environment. 5-10 colonies with similar morphology were picked from the culture dish using a sterile inoculating loop and then re-streaked onto a suitable solid culture dish. Then the dish was placed into a normal incubator for culture for 20-24 h at 35±2° C. 5-10 single bacterial colonies were picked from the solid culture dish, resuspended in 500 μL of 0.9% NaCl, and adjusted to an OD600 of 0.1-0.15 with a spectrophotometer. The bacteria were then diluted 300-fold with 1.1×CAMHB. […] Dilution of test compounds: […] 2 μL of each compound in the dilution master plate of the test compounds was transferred to the corresponding well of the assay plates. In the mean time, 2 μL of 100% DMSO was transferred to the compound-free wells (GC and SC wells). (1) 8 μL of imipenem in the additive plate of imipenem was transferred to the corresponding wells of the assay plates; (2) 8 μL of ceftazidime in the additive plate of ceftazidime was transferred to the corresponding wells of the assay plates; (3) 8 μL of ampicillin in the additive plate of ampicillin was transferred to the corresponding wells of the assay plates. 90 μL of corresponding bacterial inocula were added to wells (except for SC wells) of the assay plates. After addition, the 6 assay plates were covered by sterile covers. The mixtures in the assay plates were centrifuged by a centrifuge at 1000 rpm for 30 s, and mixed uniformly by oscillating with a microplate oscillator at 800 rpm for 1 min, and then cultured in a common incubator for 16-20 h at 35±2° C. The minimum inhibitory concentration of each compound was recorded by reference to guidelines from the Clinical and Laboratory Standards Institute. […] The effect of the test compounds in combination with imipenem, ceftazidime, and ampicillin was also tested. […] The bacterial inocula in the assay plates were resuscitated from TSA and diluted in CAMHB, while growth controls (GC wells) and sterile controls (SC wells) were set up in the assay plates. The minimum inhibitory concentration of each compound combination against different bacteria was observed and recorded after the assay plates were incubated in a common incubator at 35±2° C. for 16-20 h, and the results are shown in Tables 1-3.

[2] = system: Klebsiella pneumoniae XNWB 0001; assay: as above; settings: ceftazidime 8 μg/mL fixed
Method: as §1

[3] = system: Klebsiella pneumoniae XNWB 0002; assay: as above; settings: ceftazidime 8 μg/mL fixed
Method: as §1

[4] = system: Klebsiella pneumoniae XNWB 0003; assay: as above; settings: ceftazidime 8 μg/mL fixed
Method: as §1

[5] = system: Klebsiella pneumoniae XNWB 0004; assay: as above; settings: ceftazidime 8 μg/mL fixed
Method: as §1

[6] = system: Klebsiella pneumoniae XNWB 0005; assay: as above; settings: ceftazidime 8 μg/mL fixed
Method: as §1

[7] = system: Klebsiella pneumoniae XNWB 0006; assay: as above; settings: ceftazidime 8 μg/mL fixed
Method: as §1

[8] = system: Pseudomonas aeruginosa XNWB 0008; assay: as above; settings: ceftazidime 8 μg/mL fixed
Method: as §1

[9] = system: Acinetobacter baumannii XNWB 0007; assay: MIC assay of test compounds combined with imipenem (4 μg/mL); settings: imipenem 4 μg/mL fixed
Method: as §1

[10] = system: Klebsiella pneumoniae XNWB 0001; assay: as above; settings: imipenem 4 μg/mL fixed
Method: as §1

[11] = system: Klebsiella pneumoniae XNWB 0002; assay: as above; settings: imipenem 4 μg/mL fixed
Method: as §1

[12] = system: Klebsiella pneumoniae XNWB 0003; assay: as above; settings: imipenem 4 μg/mL fixed
Method: as §1

[13] = system: Klebsiella pneumoniae XNWB 0004; assay: as above; settings: imipenem 4 μg/mL fixed
Method: as §1

[14] = system: Klebsiella pneumoniae XNWB 0005; assay: as above; settings: imipenem 4 μg/mL fixed
Method: as §1

[15] = system: Klebsiella pneumoniae XNWB 0006; assay: as above; settings: imipenem 4 μg/mL fixed
Method: as §1

[16] = system: Pseudomonas aeruginosa XNWB 0008; assay: as above; settings: imipenem 4 μg/mL fixed
Method: as §1

Structure (SMILES) | The minimum concentration of test compounds combined with ceftazidime (8 μg/mL) for bacteriostasis [1] | The minimum concentration of test compounds combined with ceftazidime (8 μg/mL) for bacteriostasis [2] | The minimum concentration of test compounds combined with ceftazidime (8 μg/mL) for bacteriostasis [3] | The minimum concentration of test compounds combined with ceftazidime (8 μg/mL) for bacteriostasis [4] | The minimum concentration of test compounds combined with ceftazidime (8 μg/mL) for bacteriostasis [5] | The minimum concentration of test compounds combined with ceftazidime (8 μg/mL) for bacteriostasis [6] | The minimum concentration of test compounds combined with ceftazidime (8 μg/mL) for bacteriostasis [7] | The minimum concentration of test compounds combined with ceftazidime (8 μg/mL) for bacteriostasis [8] | The minimum concentration of test compounds combined with imipenem (4 μg/mL) for bacteriostasis [9] | The minimum concentration of test compounds combined with imipenem (4 μg/mL) for bacteriostasis [10] | The minimum concentration of test compounds combined with imipenem (4 μg/mL) for bacteriostasis [11] | The minimum concentration of test compounds combined with imipenem (4 μg/mL) for bacteriostasis [12] | The minimum concentration of test compounds combined with imipenem (4 μg/mL) for bacteriostasis [13] | The minimum concentration of test compounds combined with imipenem (4 μg/mL) for bacteriostasis [14] | The minimum concentration of test compounds combined with imipenem (4 μg/mL) for bacteriostasis [15] | The minimum concentration of test compounds combined with imipenem (4 μg/mL) for bacteriostasis [16]
N=C1NC[C@H](c2nnc([C@@H]3CC4(CC4)[C@@H]4CN3C(=O)N4OS(=O)(=O)O)o2)N1 [Example 56, (1R,4S)-4-(5-((R)-2-iminoimidazolidin-4-yl)-1,3,4-oxadiazol-2-yl)-6-oxo-5,7-diazaspiro[bicyclo[3.2.1]octane-2,1′-cyclopropan]-7-yl sulfate] | C (C: 16-128 μg/mL) | A (A: <8 μg/mL) | A (A: <8 μg/mL) | A (A: <8 μg/mL) | A (A: <8 μg/mL) | A (A: <8 μg/mL) | A (A: <8 μg/mL) | B (B: 8-16 μg/mL) | B (B: 8-16 μg/mL) | A (A: <8 μg/mL) | A (A: <8 μg/mL) | A (A: <8 μg/mL) | A (A: <8 μg/mL) | A (A: <8 μg/mL) | A (A: <8 μg/mL) | B (B: 8-16 μg/mL)
N=C(N)N1CCC(NCCc2cc([C@@H]3CC4(CC4)[C@@H]4CN3C(=O)N4OS(=O)(=O)O)no2)CC1 [Example 47, (1R,4S)-4-(5-(2-((1-amidinopiperidin-4-yl)amino)ethyl)isoxazol-3-yl)-6-oxo-5,7-diazaspiro[bicyclo[3.2.1]octane-2,1′-cyclopropan]-7-yl sulfate] | C (C: 16-128 μg/mL) | B (B: 8-16 μg/mL) | A (A: <8 μg/mL) | C (C: 16-128 μg/mL) | C (C: 16-128 μg/mL) | C (C: 16-128 μg/mL) | B (B: 8-16 μg/mL) | C (C: 16-128 μg/mL) | C (C: 16-128 μg/mL) | A (A: <8 μg/mL) | A (A: <8 μg/mL) | A (A: <8 μg/mL) | A (A: <8 μg/mL) | A (A: <8 μg/mL) | A (A: <8 μg/mL) | A (A: <8 μg/mL)
N[C@H]1C[C@H](c2cc([C@@H]3CC4(CC4)[C@@H]4CN3C(=O)N4OS(=O)(=O)O)no2)C1 [Example 25, (1R,4S)-4-(5-((1S,3S)-3-aminocyclobutyl)isoxazol-3-yl)-6-oxo-5,7-diazaspiro[bicycle [3.2.1]octane-2,1′-cyclopropan]-7-yl sulfate] | C (C: 16-128 μg/mL) | A (A: <8 μg/mL) | A (A: <8 μg/mL) | A (A: <8 μg/mL) | B (B: 8-16 μg/mL) | A (A: <8 μg/mL) | A (A: <8 μg/mL) | B (B: 8-16 μg/mL) | C (C: 16-128 μg/mL) | A (A: <8 μg/mL) | A (A: <8 μg/mL) | A (A: <8 μg/mL) | A (A: <8 μg/mL) | A (A: <8 μg/mL) | A (A: <8 μg/mL) | A (A: <8 μg/mL)
NC[C@@H](O)c1nnc([C@@H]2CC3(CC3)[C@@H]3CN2C(=O)N3OS(=O)(=O)O)o1 [Example 61] |  |  |  |  |  |  |  |  | B (B: 8-16 μg/mL) | A (A: <8 μg/mL) | A (A: <8 μg/mL) | A (A: <8 μg/mL) | A (A: <8 μg/mL) | A (A: <8 μg/mL) | A (A: <8 μg/mL) | B (B: 8-16 μg/mL)
NC[C@H](O)c1nnc([C@@H]2CC3(CC3)[C@@H]3CN2C(=O)N3OS(=O)(=O)O)o1 [Example 62, (1R,4S)-4-(5-((S)-2-amino-1-hydroxyethyl)-1,3,4-oxadiazol-2-yl)-6-oxo-5,7-diazaspiro[bicyclo[3.2.1]octane-2,1′-cyclopropane]-7-yl hydrogen sulfate] |  |  |  |  |  |  |  |  | A (A: <8 μg/mL) | A (A: <8 μg/mL) | A (A: <8 μg/mL) | A (A: <8 μg/mL) | A (A: <8 μg/mL) | A (A: <8 μg/mL) | A (A: <8 μg/mL) | B (B: 8-16 μg/mL)
